For assay [1], the target named is T1, R282E-PepT1 (Oryctolagus cuniculus, UniProt P36836, R282E).
T1 construct: expressed in transfected cells; host or cells: Xenopus laevis oocytes injected with cRNA
T1 sequence (P36836 1-707 R282E): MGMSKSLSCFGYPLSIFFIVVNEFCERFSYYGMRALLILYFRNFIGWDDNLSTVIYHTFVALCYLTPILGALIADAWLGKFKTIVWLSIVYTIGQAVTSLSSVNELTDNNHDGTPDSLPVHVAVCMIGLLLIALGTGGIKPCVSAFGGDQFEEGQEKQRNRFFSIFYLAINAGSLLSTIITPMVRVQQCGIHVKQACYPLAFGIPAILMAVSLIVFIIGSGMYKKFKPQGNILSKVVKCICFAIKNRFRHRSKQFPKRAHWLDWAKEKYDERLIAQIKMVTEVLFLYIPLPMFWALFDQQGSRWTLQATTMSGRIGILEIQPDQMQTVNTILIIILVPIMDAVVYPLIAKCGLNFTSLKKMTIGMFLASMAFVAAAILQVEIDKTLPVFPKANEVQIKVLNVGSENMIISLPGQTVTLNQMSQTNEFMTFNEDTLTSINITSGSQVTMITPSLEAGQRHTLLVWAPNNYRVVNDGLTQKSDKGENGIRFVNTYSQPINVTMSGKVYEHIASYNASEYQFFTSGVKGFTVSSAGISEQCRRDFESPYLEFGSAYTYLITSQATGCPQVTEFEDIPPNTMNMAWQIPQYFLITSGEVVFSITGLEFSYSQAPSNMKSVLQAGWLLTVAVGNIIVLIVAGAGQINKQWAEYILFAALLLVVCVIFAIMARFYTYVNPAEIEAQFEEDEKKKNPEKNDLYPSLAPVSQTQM
Nature of the assay: Accumulation of [3H]-D-Phe-L-Gln above the extracellular concentration by oocytes expressing R282E-PepT1. It counts as cell-based, rabbit. Conditions: R282E-PepT1, pHout 7.4, 24 h incubation. The method, then: (§1) Zero-trans uptake of [^3H]-D-Phe-L-Gln (17.4 Ci/mmole, custom synthesised, Cambridge Research Biochemicals, Stockton-on-Tees, UK) was performed as previously described ([Meredith, 2004]). Briefly, 5 oocytes were incubated in 100 μl of uptake medium (95 mM NaCl, 2 mM KCl, 1 mM CaCl2, 0.42 mM MgCl2, 10 mM Tris/Hepes pH 7.4 or Tris/Mes pH 5.5) with tracer (0.4 μM) [^3H]-D-Phe-L-Gln. After incubation, the oocytes were washed sequentially five times in 1 ml of ice-cold 120 mM NaCl solution, lysed individually with 100 μl 2% (w/v) SDS and liquid scintillation counted. As a control non-injected oocytes were also incubated in uptake medium with [^3H]-D-Phe-L-Gln as above.

In assay [2] the target is T2, wild-type PepT1 (Oryctolagus cuniculus, UniProt P36836).
T2 construct: expressed in transfected cells; host or cells: Xenopus laevis oocytes injected with cRNA
T2 sequence (P36836 1-707): T1 sequence (P36836 1-707 R282E) with E282R
Nature of the assay: Diethylpyrocarbonate inhibition of PepT1-mediated dipeptide uptake and protection by substrates. It counts as cell-based, rabbit. Conditions: 5 mM present during 1 mM DEPC incubation (15 min), uptake measured over 1 h. As for the experimental part: as §1
Diethylpyrocarbonate (DEPC) inhibition of PepT1 was performed using a similar protocol to that of [Terada, Saito, and Inui (1998)]. Briefly, PepT1 oocytes were preincubated with 1 mM DEPC for 15 min at pHout 5.5 in the absence or presence of the PepT1 substrates Gly-L-Gln, N-Acetyl-Phe ([Meredith et al., 2000]), and L-Ala-Tyramine (custom synthesised) and the non-substrate Tyr (all 5 mM). The oocytes were then washed in uptake medium before uptake assays were performed as detailed above.

Molecules are shown by their SMILES. Numbering of substitutions follows the chain as printed. Where a SMILES comes first, the peptide text is derived from it.

For `NC(=O)CC[C@H](NC(=O)[C@H](N)Cc1ccccc1)C(=O)O` [D-Phe-L-Gln], the “accumulation above extracellular concentration” value in assay [1] is given as 2.3 ± 0.4 -fold.

On to `NCC(=O)N[C@@H](CCC(N)=O)C(=O)O` [Gly-L-Gln] (H-Gly-Gln-OH), for which, in assay [2], the “protection of PepT1 from DEPC inhibition” value is “largely prevented”.

For the origin of these results see paper PMC2267855, “Site-directed mutagenesis of Arginine282 suggests how protons and peptides are co-transported by rabbit PepT1” (The International Journal of Biochemistry & Cell Biology, 2008).
